Experiments:
Format in all cases: cell-based, human
Jurkat cells = test: Lipid peroxidation, TBARS assay; settings: pretreated 3 h, TNF 1 nM 1 h
Protocol: Lipid peroxidation was assessed by the TBARS assay, which detects mainly malondialdehyde (MDA), a product of the peroxidation of polyunsaturated fatty acids and related esters. TBARS were measured by a modification of the method described previously, (Ohkawa et al., Anal. Biochem. 95:351-358. (1979)). Jurkat cells, 6×10^6 cells in 2 ml were pretreated with either media or different concentrations of CAMVE (as described in the Figure legends) for 3 h and then stimulated with 1 nM TNF for 1 h. Cells were washed before undergoing three cycles of freeze-thawing in 200 μl of water. A 20 μl aliquot was subsequently removed for Bradford protein determination, and 800 μl of assay mix (0.4% (w/v) thiobarbituric acid, 0.5% (w/v) SDS, 9.4% (v/v) acetic acid, pH 3.5) was added to the remaining sample. Samples were incubated for 60 min at 95° C., cooled at room temperature, and centrifuged at 14,000×g for 10 min, and the absorbance of the supernatants was read at 532 nm against a standard curve prepared using the MDA standard (10 mM 1,1,3,3-tetramethoxypropane in 20 mM Tris-HCL, pH 7.4). Results were calculated as nmol of MDA equivalents/mg of protein and expressed as a percentage of matched control values.

p65 = test: Nuclear translocation of p65 by flow cytometry, Jurkat
Protocol: FIG. 5: Effect of CAMVE on TNF or LPS induced nuclear translocation of p65. A. HeLa cells either untreated or pretreated with 15 μM CAMVE for 3 h at 37° C. were stimulated with 0.1 nM TNF and immunocytochemical analysis were performed as described in “Materials and Methods”. B. Jurkat (5×10^5 cells/ml) cells were pretreated with indicated concentrations of CAMVE for 3 h and then stimulated with 0.1 nM of TNF for 30 min or 100 ng/ml of SA-LPS (serum activated LPS) for 15 min. After these treatments, cells were washed twice with PBS and nuclei were isolated by incubating the cells with […] Pipes-Triton buffer for 30 min at 4° C. Nuclei were stained for p65 and analyzed using FACS. (i). Representative histogram overlay showing TNF or LPS stimulated (1), basal (2), CAMVE stimulated (3), p65 staining in the nucleus. (ii). Ordinates gives the Isotype-corrected MFI for various treatments.
The assay was performed as described previously (Blaecke, A., Yves, D., Herbault, N., Jeannin, P., Bonnefoy, J. V., Beck, A., Aubry, J. P. (2002) Cytometry 48, 71-79). Briefly after stimulation, cells were washed twice with PBS. Nucleus was prepared by incubating the cells with 200 ul Pipes-Triton buffer for 30 min at 4° C. […] After washing, the nuclei were incubated with secondary FITC conjugated goat anti-mouse antibody (Sigma) for additional 30 mins at 4° C. and analysed using FACS. […]

ICAM1 (CD54) = test: ICAM 1 (CD 54) expression by flow cytometry
Protocol: FIG. 7: Effect of CAMVE on TNF or LPS induced ICAM1 (CD54) expression. Cells (5×10^5 cells/ml) were pretreated with different concentrations of CAMVE for 3 h and then treated with TNF (0.1 nM) or SA-LPS (100 ng/ml) for 12 h at 37° C. in a CO2 incubator. Treated cells were washed and stained with anti human CD54-FITC conjugated antibody to measure the amount of surface ICAM1 expression. The relative mean fluorescence intensity (MFI) was measured using FACS Calibur (BD). A. Representative histogram overlay showing TNF or LPS stimulated (1), basal (2), CAMVE pretreated (3). B. Values are given as MFI (mean±S.D.) in percent of basal expression, which was set to 100%.
Cells were pretreated with different concentrations of CAMVE for 3 h and then treated with 0.1 nM of TNF or 100 ng/ml SA-LPS for 12 h at 37° C. in a CO2 incubator. Extent of ICAM 1 expression was detected by staining the washed cells with FITC-labeled monoclonal antibody which binds to the cells expressing the CD 54 (ICAM 1). Unbound FITC-conjugated antibody is then washed from the cells and the cells were resuspended in 0.5 ml of 1% paraformaldehyde, and analyzed using Flow Cytometer (B D FACS Calibur). Cells CD54 structure is fluorescently stained, with the intensity of staining is directly proportional to the density of CD54.

phosphotyrosine = test: Tyrosine phosphorylation assay (flow cytometry), Jurkat; settings: 24 h
Protocol: FIG. 20: Suppression of phosphotyrosine levels in Jurkat cells by compound 27. 1×10^6 cells were treated with indicated concentrations of the compound for 24 h. Cells were fixed and permeabilized as described in the “Materials and Methods”, and the extent of tyrosine phosphorylation in the cells was determined by measuring the increase in fluorescence produced by the FITC-labeled monoclonal antibody compared to the FITC-labeled isotype control antibody. 100 nM concentration was sufficient to bring significant reduction in tyrosine phosphorylation levels compared to the control values.
Tyrosine Phosphorylation assay: Tyrosine Phosphorylation assay was performed by the method described by Far, D. F. et. al., (Cytometry (1994) 15(4):327-334) and Park. J. B., et al. ((2003) Cancer Letters, 202 161-171). Briefly, cells (10^6) were washed with ice-cold PBS, pH 7.2 for 30 min at 4° C. After centrifugation and a PBS wash it was treated with 5 ml chilled 70% ethanol. […] Extent of tyrosine phosphorylation in the cells was determined by measuring the increase in fluorescence produced by the FITC-labeled monoclonal antibody compared to the FITC-labeled isotype control antibody. Fluorecence events for 10,000 cells were collected and analyzed by flow cytometry (FACSCalibur cytometer with CellQuest software, Becton Dicinson, San Jose, Calif.).

Row | Compound | TNF induced lipid peroxidation (Jurkat cells) | TNF or LPS mediated p65 translocation (p65; Jurkat nuclei, pretreated 3 h, 0.1 nM TNF or 100 ng/ml SA-LPS) | basal nuclear p65 staining (p65; Jurkat, CAMVE alone) | basal ICAM1 expression (ICAM1 (CD54); CAMVE alone) | TNF or LPS induced ICAM1 expression (ICAM1 (CD54); pretreated 3 h, TNF 0.1 nM or SA-LPS 100 ng/ml 12 h) | phosphotyrosine level (mean fluorescence intensity) (phosphotyrosine; 100 nM, vs untreated controls) | phosphotyrosine level (phosphotyrosine; all doses)
1 | COC(=O)c1ccc(OC(=O)/C=C/c2ccc(O)c(O)c2)c(OC)c1 [compound 1, Methyl 4-{[(2E)-3-(3,4-dihydroxyphenyl)prop-2-enoyl]oxy}-3-methoxybenzoate] | significantly suppressed by CAMVE in a dose dependent manner | blocked with CAMVE pretreatments | not altered by incubation with CAMVE alone | not altered by incubation with CAMVE alone | blocked in CAMVE pretreated cells | – | –
2 | COc1cc([C@@H]2Oc3c(OC)cc(/C=C/C(=O)O)cc3[C@H]2C(=O)O)ccc1O [compound 27, 5-[(E)-2-carboxyvinyl]-2β-(4-hydroxy-3-methoxyphenyl)-7-methoxy-2,3-dihydro-1-benzofuran-3α-carboxylic acid] | – | – | – | – | – | significant reduction in the mean fluorescence intensity | reduced at all doses

Reference: patent US20100168228A1, “NOVEL CHEMOTHERAPEUTIC AGENTS AGAINST INFLAMMATION AND CANCER” (RELIANCE LIFE SCIENCES PVT. LTD., priority 2006, published 2010)
